Among the data in patent publication US20240368125A1, “NOVEL PYRAZINYL-TRIAZOLE COMPOUNDS AS PESTICIDES” (Bayer Aktiengesellschaft, priority 2021, published 2024) are mortality and pest or weed control values, retold here.

What all share (assay type): in vivo
For test [1], the system named is larvae of the southern green stink bug (Nezara viridula). Nature of the test: Nezara viridula spray test. Conditions: Nezara viridula, in Hordeum vulgare, 96 h. Summed up:
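Barley plants sprayed with compound in acetone/DMF diluted in water with 1000 ppm alkylarylpolyglycol ether emulsifier, then infested with N. viridula larvae. Mortality (%) scored after 4 days; 100% means all bugs killed.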

The subject of test [2] is adult cat fleas (Ctenocephalides felis). Nature of the test: Ctenocephalides felis in-vitro contact test, adult cat flea. The note with it: Ctenocephalides felis; 1 μg/cm^2 (=100 g/ha), after 48 hours; read-out: efficacy (fleas dead or moribund).
In test [3] the test system is brown planthopper (Nilaparvata lugens). As to the kind of experiment: Nilaparvata lugens spray test. Conditions: Nilaparvata lugens, in Oryza sativa, 96 h. The essentials: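 Compound dissolved in acetone/dimethylformamide and diluted in water with 1000 ppm alkylarylpolyglycol ether emulsifier. Rice plants sprayed at the test concentration, then infested with brown planthopper; % mortality read after 4 days (100% = all killed, 0% = none).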

The subject of test [4] is green peach aphid (Myzus persicae). Nature of the test: Myzus persicae spray test (MYZUPE). Conditions: in Brassica rapa, foliar, 120 h. Summed up: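 Chinese cabbage leaf disks infested with all instars of M. persicae sprayed with compound (acetone/DMF solvent, water with 1000 ppm alkylarylpolyglycol ether emulsifier) at the desired concentration. Percent mortality determined after 5 days; 100% = all aphids killed.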

In test [5] the test system is adult flies Musca domestica strain WHO-N. As to the kind of experiment: Musca domestica test (MUSCDO surface treatment & contact assay). The note with it: 24 hours after contact, read-out: efficacy (mortality); for mortality at 4 mg/m2: surface concentration 4 mg/m^2, 30 min exposure; for mortality at 20 mg/m2: surface concentration 20 mg/m^2, 30 min exposure. On the procedure:
Musca domestica Test (MUSCDO Surface Treatment & Contact Assay
(§1) Solvent: Aceton+2000 ppm rapeseed oil methyl ester (RME)
(§2) In order to produce a sufficient, active ingredient containing solution it is necessary to solve the test compound in the solvent-mix (acetone at 2 mg/ml/RME 2000 ppm). This solution is pipetted onto a glazed tile and after evaporation of the acetone, adult flies of the species Musca domestica strain WHO-N are placed onto the dried surface. The exposure time is 30 minutes. Mortality in percent (%) is determined 24 hours after contact of the insects to the treated surface. 100% mortality means that all tested insects are dead, whereas 0% means that no insect died.

Test [6] relates to adult mosquitoes Anopheles funestus strain FUMOZ-R. Nature of the test: Anopheles funestus test (ANPHFU surface treatment & contact assay). Conditions: 24 hours after contact, read-out: efficacy (mortality); for mortality at 4 mg/m2: surface concentration 4 mg/m^2, 30 min exposure; for mortality at 20 mg/m2: surface concentration 20 mg/m^2, 30 min exposure. On the procedure:
Anopheles funestus Test (ANPHFU Surface Treatment & Contact Assay
as §1
as §2, with “mosquitoes” for “flies”, “Anopheles funestus” for “Musca domestica”, “FUMOZ-R (Hunt et al., Med. Vet. Entomol. 2005 September; 19(3): 271-275)” for “WHO-N”

Test [7] concerns adult unfed cat fleas (Ctenocephalides felis). As to the kind of experiment: Ctenocephalides felis oral test. The note with it: 48 h, 100 ppm in citrated cattle blood, after 2 days. The procedure: Ctenocephalides felis—Oral Test
Solvent: Dimethyl Sulfoxide
To produce a suitable preparation of active compound, 10 mg of active compound are dissolved in 0.5 mL solvent, and the concentrate is diluted with citrated cattle blood to the desired concentration.
Approximately 20 adult unfed cat fleas (Ctenocephalides felis) are placed in a flea chamber whose top and bottom is covered with gauze. A chamber whose bottom is sealed with parafilm, is filled with the blood-compound solution and placed on top of the flea chamber, so that the fleas can suck the blood. The blood chamber is heated to 37° C. whereas the flea chamber is kept at room temperature.
After 2 days mortality in % is determined. 100% means all the fleas have been killed; 0% means none of the fleas have been killed.

The term mortality denotes the percentage killed. On to `CNC(=O)c1cnc(-n2ncnc2[C@H](C)NC(=O)c2cc(OC(F)(F)F)cc(C3CC3)c2)cn1` [Example I-021], for which the mortality at 500 g/ha in test [1] amounted to 100%. In addition, in test [2], the pest or weed control at 1 µg/cm2 turned out to be 100%. The molecule further showed a mortality at 500 g/ha in test [3] of 100%. In test [4], this molecule gave a mortality at 100 g/ha of 90%. Besides, in test [5], the mortality at 4 mg/m2 fell in the range of 80 to 100% and the mortality at 20 mg/m2 lay in the range of 80 to 100%.

Consider `C[C@H](NC(=O)c1cc(OC(F)(F)F)cc(C2CC2)c1)c1ncnn1-c1cnc(C(=O)N(C)C)cn1` [Example I-002], for which the pest or weed control at 1 µg/cm2 in test [2] was 100%. This molecule also gave a mortality at 500 g/ha in test [3] of 90%. Further, in test [6], the mortality at 4 mg/m2 lay in the range of 85 to 100% and the mortality at 20 mg/m2 fell in the range of 85 to 100%. The molecule further showed a mortality at 100 ppm in test [7] of 100%. The molecule further gave a mortality at 100 g/ha in test [4] of 90%. Also, the mortality at 20 mg/m2 in test [5] lay within 80 to 100%.

Regarding `CNC(=O)c1cnc(-n2ncnc2[C@H](C)NC(=O)c2cc(C(F)(F)F)cc(C(F)(F)F)c2)cn1` [Example I-009], the mortality at 500 g/ha in test [1] and in test [3] was 100% each time. Further, the pest or weed control at 1 µg/cm2 in test [2] stood at 100%. For the same molecule, the values for the mortality at 4 mg/m2 in test [6] and in test [5] were 85 to 100% and 80 to 100%, respectively. Moreover, the mortality at 20 mg/m2 in test [6] was 85 to 100%; in test [5], 80 to 100%. This molecule also came in with a mortality at 100 ppm in test [7] of 100%. This molecule also had a mortality at 100 g/ha in test [4] of 90%.

For `C[C@H](NC(=O)c1cc(C(F)(F)F)cc(C(F)(F)F)c1)c1ncnn1-c1cnc(C(=O)N(C)CC2CC2)cn1` [Example I-008], in test [1], the mortality at 500 g/ha turned out to be 100%. The pest or weed control at 1 µg/cm2 in test [2] was 100%. In addition, the mortality at 500 g/ha in test [3] is 100%. The mortality at 100 ppm in test [7] is 100%. The mortality at 100 g/ha in test [4] was 90%. In test [5], the mortality at 4 mg/m2 lay within 80 to 100% and the mortality at 20 mg/m2 is 80 to 100%.

`C[C@H](NC(=O)c1cc(C(F)(F)F)cc(C(F)(F)F)c1)c1ncnn1-c1cnc(C(=O)N(C)C2CC2)cn1` [Example I-007]: the pest or weed control at 1 µg/cm2 in test [2] was 100%. Besides, the mortality at 500 g/ha in test [3] came out at 100%. In test [7], this molecule came in with a mortality at 100 ppm of 100%. The mortality at 100 g/ha in test [4] is 90%. Further, in test [5], the mortality at 4 mg/m2 lay within 80 to 100% and the mortality at 20 mg/m2 was 80 to 100%.
